From patent publication US20130011411A1, “METHODS AND COMPOSITIONS FOR THE DIAGNOSIS, PROGNOSIS, AND TREATMENT OF CANCER” (priority 2010, published 2013)

Test system: breast cancer cell lines
Test: DACH1 mRNA expression after methylation inhibitor treatment
Type: cell-based
Settings: different breast cancer cell lines; data not shown
From the text: DNA methylation is a common mechanism leading to tumor suppressor inactivation.

With `Nc1ncn([C@H]2C[C@H](O)[C@@H](CO)O2)c(=O)n1` [5-aza-2′-deoxycytidine] the “DACH1 mRNA expression” value was “induced DACH1 mRNA expression”.
